From PubChem BioAssay (NCI)
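96-well plates; 48 h exposure; 5 concentrations. Endpoints by linear interpolation between flanking doses. Not reached: highest tested concentration assigned. Definition used: TGI = concentration required for complete inhibition of growth.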

Tests used:
Assay in all cases: inhibition of tumour cell growth, NCI panel, 48 h
DU-145 prostate = tested on: DU-145 prostate
HCT-116 colon = tested on: HCT-116 colon
IGROV1 ovarian = tested on: IGROV1 ovarian
NCI-H23 lung = tested on: NCI-H23 lung
NCI-H460 lung = tested on: NCI-H460 lung
OVCAR-8 ovarian = tested on: OVCAR-8 ovarian
SK-MEL-2 melanoma = tested on: SK-MEL-2 melanoma
UACC-62 melanoma = tested on: UACC-62 melanoma

| SMILES | TGI (DU-145 prostate) | TGI (HCT-116 colon) | TGI (IGROV1 ovarian) | TGI (NCI-H23 lung) | TGI (NCI-H460 lung) | TGI (OVCAR-8 ovarian) | TGI (SK-MEL-2 melanoma) | TGI (UACC-62 melanoma) |
| --- | --- | --- | --- | --- | --- | --- | --- | --- |
| Cc1cn2cc(-c3cccs3)nc2s1 | > 100 µM | > 100 µM | > 100 µM | > 100 µM | > 100 µM | > 100 µM | > 100 µM | > 100 µM |
| O=C1CSC(c2c[nH]c3ccccc23)N1c1cccc(Cl)c1 (stereo not drawn) | > 100 µM | > 100 µM | > 100 µM | > 100 µM | > 100 µM | > 100 µM | 65.2 µM | > 100 µM |
| O=C1c2ccccc2-c2nnc3c(c21)Cc1ccccc1C3 | > 10 µM | > 10 µM | > 10 µM | > 10 µM | > 10 µM | > 10 µM | > 10 µM | > 10 µM |
| C[N+]1(C)C2CC(OC(=O)C(CO)c3ccccc3)CC1C1OC12 (stereo not drawn) | > 100 µM | > 100 µM | > 100 µM | > 100 µM | – | > 100 µM | > 100 µM | > 100 µM |
| CCNC1=C(NC(=O)c2ccc(F)cc2)C(=O)c2ccccc2C1=O | > 100 µM | > 100 µM | > 100 µM | > 100 µM | > 100 µM | > 100 µM | – | > 100 µM |
| C=C1CC[C@](C)(O)[C@@]2(C)CC[C@H]3C(=C(C)C)C(=O)C[C@]3(C)C[C@H]12 | > 50 µM | > 50 µM | > 50 µM | > 50 µM | – | > 50 µM | > 50 µM | > 50 µM |
| C#CCOC(=O)C(N)CC(N)=O (stereo not drawn) | > 100 µM | > 100 µM | > 100 µM | > 100 µM | > 100 µM | > 100 µM | > 100 µM | > 100 µM |
| Cc1ccc2c(c1C)C(=O)C1(C2)Cc2ccc3c(c2C1=O)CCC3 (stereo not drawn) | > 100 µM | > 100 µM | > 100 µM | > 100 µM | > 100 µM | > 100 µM | > 100 µM | > 100 µM |
| CC1(C)CNC(=O)C2(CCCO2)CNC(C)(C)CNC(=O)C2(CCCO2)CN1 (stereo not drawn) | > 10 µM | > 10 µM | > 10 µM | > 10 µM | – | > 10 µM | – | > 10 µM |
| COc1ccc(/C=C/C(=O)c2cc(OC)cc(OC)c2)cc1 | 10.8 µM | 6.67 µM | 25.7 µM | 8.53 µM | 14.4 µM | 18.3 µM | 42.3 µM | 16.9 µM |
| Cc1ccc(-c2n[nH]c(=O)n2/N=C\c2ccccc2O)cc1 | > 100 µM | > 100 µM | > 100 µM | > 100 µM | > 100 µM | > 100 µM | > 100 µM | – |
| C=C1c2nc3ccccc3n2C=C(c2ccc(OC)cc2)N1c1ccc(OCCN2CCCCC2)cc1 | > 100 µM | > 42.4 µM | > 100 µM | > 61.4 µM | 14.8 µM | > 100 µM | > 51.6 µM | > 100 µM |
| CCCN(CCC)C(=S)Sc1nc(C)nc(N2CCN(c3nc(C)nc(SC(=S)N(CCC)CCC)c3[N+](=O)[O-])CC2)c1[N+](=O)[O-] | > 100 µM | 16.9 µM | 41 µM | 36.8 µM | > 100 µM | > 100 µM | 30.9 µM | 60.3 µM |
